Data on 24 compounds can be found in PubChem BioAssay (NCI).

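Protocol summary: plate cells (96-well), add compound at 5 concentrations, incubate 48 h, interpolate endpoints linearly. Here, GI50 denotes the concentration required for 50% inhibition of growth. Definition used: TGI = concentration required for complete inhibition of growth.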

Among the test systems are HL-60(TB) leukemia; T-47D breast; HOP-92 NSCLC; UO-31 renal; NCI-H522 lung; SF-268 CNS; EKVX NSCLC; SNB-19 CNS; KM12 colon; MDA-MB-231 breast.
What all share (experiment): NCI anticancer screen, dose series, 48 h

Regarding `CCCN1CCN(c2ccc3nc(-c4ccc5nc(-c6ccc(OCC)cc6)[nH]c5c4)[nH]c3c2)CC1`, the GI50 in the test with HL-60(TB) leukemia was 1.08 µM; with T-47D breast, 1.41 µM; in the test with HOP-92 NSCLC, 5.05 µM; in the test on UO-31 renal, 14.3 µM; in the test on NCI-H522 lung, 1.16 µM. Besides, the TGI in the test with HL-60(TB) leukemia came to 3.55 µM; in the test with T-47D breast, 6.36 µM; in the test with HOP-92 NSCLC, 28.4 µM; with UO-31 renal it was 43.9 µM; with NCI-H522 lung it was 3.46 µM.
In the case of `N#Cc1ccccc1C#C/C=C\C#Cc1ccccn1`, the TGI with HL-60(TB) leukemia is 63.6 µM; in the test on SF-268 CNS it was 48.4 µM; in the test with EKVX NSCLC it was 57.7 µM; with T-47D breast it was 62.5 µM; with SNB-19 CNS, 69.3 µM; in the test on HOP-92 NSCLC it was more than 100 µM. Also, the TGI came to 32.3 µM with UO-31 renal, 29.6 µM with KM12 colon and 36.7 µM in the test with NCI-H522 lung.
`O=C(N/N=C/c1ccc(O)cc1)NNCCO`: the TGI with HL-60(TB) leukemia, with T-47D breast, in the test with MDA-MB-231 breast, in the test on SNB-19 CNS, in the test with UO-31 renal and in the test with KM12 colon was more than 100 µM each time. This compound yielded a TGI in the test with NCI-H522 lung of more than 100 µM.
For `Nc1nc(Cl)cc(OCC2(CO)CCCCC2)n1`, the TGI with HL-60(TB) leukemia, in the test on SF-268 CNS, in the test on EKVX NSCLC, in the test on SNB-19 CNS, in the test with HOP-92 NSCLC and in the test with NCI-H522 lung was more than 100 µM each time.
For `C#CCN(Cc1ccc2nc(-c3ccccc3)c(Cl)nc2c1)c1ccc(Cl)c(Cl)c1`, the TGI with HL-60(TB) leukemia, with SF-268 CNS, in the test on EKVX NSCLC, in the test with SNB-19 CNS, in the test with HOP-92 NSCLC and in the test on UO-31 renal was more than 100 µM throughout. Moreover, the TGI with KM12 colon and with NCI-H522 lung was more than 100 µM in each case.
For the compound `COC(=O)C1=C(C(=O)OC)SC2(S1)C(C(=O)OC)=C(C(=O)OC)Sc1c2ssc1=O`, the TGI in the test on HL-60(TB) leukemia is 0.0492 µM; in the test on SF-268 CNS, 10.3 µM; with EKVX NSCLC, 6.16 µM; in the test on MDA-MB-231 breast, 3.55 µM; with SNB-19 CNS, 34.2 µM; with HOP-92 NSCLC, 2.3 µM. Further, the TGI came out at 3.15 µM in the test on UO-31 renal, 15.4 µM in the test with KM12 colon and 0.581 µM in the test with NCI-H522 lung.
Regarding `c1ccc(C2SCc3nc4ccccc4n32)cc1` (centres undefined), the TGI was 46.5 µM in the test with HL-60(TB) leukemia; more than 100 µM with SF-268 CNS; more than 100 µM in the test on EKVX NSCLC; more than 100 µM in the test on SNB-19 CNS; more than 100 µM with HOP-92 NSCLC; more than 100 µM in the test with UO-31 renal. The TGI in the test on KM12 colon was more than 100 µM; in the test with NCI-H522 lung, 77.8 µM.
For the compound `CCN1CC2(CO)CCC(OC)C34C5CC6C(OC)CC(O)(C5C6OC)C(O)(C(OC)C23)C14` (centres undefined), the TGI in the test with HL-60(TB) leukemia was more than 375 µM; with SF-268 CNS, more than 375 µM; in the test with EKVX NSCLC, more than 65 µM; in the test on SNB-19 CNS, more than 375 µM; in the test with HOP-92 NSCLC, more than 375 µM; in the test on UO-31 renal, more than 375 µM. For the same compound, the TGI in the test with KM12 colon and in the test with NCI-H522 lung was more than 375 µM in each case.
For the compound `CN1C(=O)c2c(c3c4ccccc4n(C)c3c3c2c2ccccc2n3C)C1=O`, the TGI with EKVX NSCLC, with T-47D breast, in the test on MDA-MB-231 breast, in the test on SNB-19 CNS, in the test on HOP-92 NSCLC and with UO-31 renal was more than 100 µM in each case. In addition, the TGI in the test with KM12 colon and with NCI-H522 lung was more than 100 µM throughout.
For `COc1ccc(CNCCN2C(=O)c3ccc4c5c(ccc(c35)C2=O)C(=O)N(CCNCc2ccc(OC)c(OC)c2OC)C4=O)c(OC)c1OC`, the GI50 with MDA-MB-231 breast was 0.239 µM; in the test with SNB-19 CNS it was 0.429 µM; in the test on HOP-92 NSCLC it was 1.56 µM; in the test on NCI-H522 lung, 0.519 µM. The TGI with MDA-MB-231 breast is 2.37 µM; with SNB-19 CNS it was 4.13 µM; in the test with HOP-92 NSCLC, 3.44 µM; with NCI-H522 lung, 1.19 µM.
`O=C1C(Nc2ccc(S(=O)(=O)Nc3cnc4ccccc4n3)cc2)=CC(=Nc2ccc(S(=O)(=O)Nc3cnc4ccccc4n3)cc2)c2ccccc21`: the TGI amounted to 54.7 µM in the test on HL-60(TB) leukemia; 38.2 µM with SF-268 CNS; 36.1 µM with EKVX NSCLC; 70.2 µM with MDA-MB-231 breast; 29 µM in the test on SNB-19 CNS; 28.7 µM in the test with HOP-92 NSCLC. Besides, the TGI in the test on UO-31 renal was determined as 30.4 µM; in the test with KM12 colon, 31 µM; with NCI-H522 lung it was 30.5 µM.
As to `CN(C)CCNC(=O)c1cccc2c(NC(CCCN=C(N)N)C(=O)O)c3ccccc3nc12` (centres undefined), the TGI was more than 100 µM in the test on HL-60(TB) leukemia; 27.7 µM in the test with SF-268 CNS; 30.1 µM in the test with EKVX NSCLC; more than 100 µM in the test with MDA-MB-231 breast; 47 µM in the test with SNB-19 CNS; 51.1 µM in the test with HOP-92 NSCLC. The values for the TGI in the test on UO-31 renal, in the test on KM12 colon and in the test with NCI-H522 lung were more than 100 µM, 61.5 µM and 29.5 µM, respectively.
Consider `C#CCN1C(=O)CN2C(Cl)(Cl)C2(c2ccccc2)c2cc(Cl)ccc21` (centres undefined), for which the TGI is more than 100 µM with SF-268 CNS; more than 100 µM in the test on EKVX NSCLC; more than 100 µM in the test on HOP-92 NSCLC; more than 100 µM with UO-31 renal; 94 µM with KM12 colon; 75.2 µM in the test on NCI-H522 lung.
For the compound `COC(=O)C12CCC(CC1=O)C2(C)C` (centres undefined), the TGI in the test with HL-60(TB) leukemia, in the test with EKVX NSCLC, in the test with SNB-19 CNS, with HOP-92 NSCLC and in the test with UO-31 renal was more than 100 µM in each case.
For `CCOC(=O)C1=C(C)NC(c2ccccc2)=C(C(=O)OCc2ccccc2)C1C#Cc1ccccc1` (centres undefined), the TGI in the test with HL-60(TB) leukemia, in the test with SF-268 CNS, in the test with EKVX NSCLC, in the test with T-47D breast, in the test on SNB-19 CNS and with UO-31 renal was more than 100 µM in each case. The TGI with KM12 colon was more than 100 µM.
Take `O=C(Cn1cc(I)c(C(=O)NCC(O)CO)n1)NCC(O)CO` (centres undefined): the TGI in the test with HL-60(TB) leukemia, with SF-268 CNS, with EKVX NSCLC, in the test on SNB-19 CNS, in the test with HOP-92 NSCLC and with UO-31 renal was more than 100 µM throughout. The TGI with KM12 colon and in the test with NCI-H522 lung was more than 100 µM each time.
For the compound `CCCCCCCCC/C=C1/CC(CO)(COC(=O)C2CCCCC2)OC1=O` (centres undefined), the TGI with SF-268 CNS, with EKVX NSCLC, in the test with T-47D breast, with MDA-MB-231 breast, with SNB-19 CNS and with HOP-92 NSCLC was more than 100 µM each time. Also, the TGI in the test with UO-31 renal, in the test on KM12 colon and in the test with NCI-H522 lung was more than 100 µM throughout.
For `Cc1ccc2c(=O)cc(-c3ccccc3)[nH]c2n1`, the TGI in the test on SF-268 CNS was more than 100 µM; in the test with EKVX NSCLC it was more than 100 µM; in the test on T-47D breast, more than 100 µM; in the test on MDA-MB-231 breast, 22.8 µM; in the test on SNB-19 CNS it was more than 100 µM; in the test on HOP-92 NSCLC, more than 55.2 µM. In addition, the TGI in the test with UO-31 renal was more than 81.8 µM; in the test on KM12 colon it was 45.7 µM; in the test with NCI-H522 lung, 2.94 µM.
For the compound `OC[C@@H](O)[C@H](O)[C@H](O)[C@@H](O)C1SCCCS1`, the TGI in the test on SF-268 CNS was more than 100 µM; in the test on EKVX NSCLC it was more than 100 µM; in the test with T-47D breast it was more than 100 µM; with MDA-MB-231 breast, more than 100 µM; in the test on SNB-19 CNS it was more than 100 µM; in the test on HOP-92 NSCLC, 92.5 µM. Besides, the TGI with UO-31 renal and with KM12 colon was more than 100 µM in each case.
On to `Nc1ccc2ncc(NCc3ccc(F)cc3)nc2c1`, for which the TGI with HL-60(TB) leukemia, in the test on SF-268 CNS, in the test with EKVX NSCLC, with SNB-19 CNS, in the test on HOP-92 NSCLC and in the test on UO-31 renal was more than 100 µM in each case. Moreover, the TGI in the test on KM12 colon and in the test with NCI-H522 lung was more than 100 µM each time.
For `O=C(O)Cn1cnc2c(=O)[nH]c(Nc3ccccc3)nc21`, the TGI in the test with SF-268 CNS, with EKVX NSCLC, in the test on T-47D breast, in the test with MDA-MB-231 breast, in the test with SNB-19 CNS and with HOP-92 NSCLC was more than 100 µM each time. For the same compound, the TGI with KM12 colon and in the test on NCI-H522 lung was more than 100 µM throughout.
For the compound `COc1ccc(/C=N/NC(=O)NCCNCCO)cc1`, the TGI in the test on HL-60(TB) leukemia, with SF-268 CNS, in the test on HOP-92 NSCLC, with UO-31 renal, in the test on KM12 colon and in the test on NCI-H522 lung was more than 100 µM throughout.
In the case of `CC(=O)Nc1ccc(S(=O)(=O)Nc2cnc3ccccc3n2)cc1`, the TGI in the test with HL-60(TB) leukemia, with SF-268 CNS, in the test on EKVX NSCLC, in the test with SNB-19 CNS, in the test with HOP-92 NSCLC and in the test on UO-31 renal was more than 100 µM throughout. Besides, the TGI in the test on KM12 colon and in the test on NCI-H522 lung was more than 100 µM in each case.
Regarding `CCN(CC)CCNC(=O)C1COc2ccc(-c3cc(=O)c4ccccc4o3)cc2O1` (centres undefined), the TGI in the test on HL-60(TB) leukemia turned out to be 30.8 µM; in the test with SF-268 CNS it was 55.9 µM; in the test on EKVX NSCLC it was 61 µM; in the test on SNB-19 CNS it was 59.9 µM; with HOP-92 NSCLC, 53.9 µM; in the test on UO-31 renal, 29.6 µM. For the same compound, the TGI in the test on KM12 colon came out at 35.4 µM; in the test with NCI-H522 lung, 32.5 µM.
